{
  "source": "patent US9243281B2",
  "about": "“Neuroprotective chemicals and methods for identifying and using same” (Board of Regents of The University of Texas System, priority 2013, dated 2016)",
  "key": {"NAD in U2OS cells": {"test_system": "NAD in U2OS cells", "experiment": "intracellular NAD abundance by LC-MS/MS", "format": "cell-based", "conditions": "U2OS cells exposed to sub-lethal doxorubicin", "protocol": "FIGS. 5A-5C. Active variants of P7C3 compensate NAD exhaustion induced by doxorubicin. (FIG. 5A) U2OS cells were treated with the indicated concentration of P7C3-A20. Cells were harvested and NAD metabolites were measured by LC-MS/MS. Abundance of NAD was normalized relative to total metabolites (Experimental Procedures). The data are represented as the mean±SD of experimental duplicates. […] Cells were grown in 96-well plates and treated with the indicated concentrations of P7C3-A20, P7C3-S243, P7C3-S6 or P7C3-S117 together with 0.5 μM doxorubicin for 45 h. Cellular NAD abundance was determined by NAD/NADH Glo assay kit. […] The activities in both assays are represented by (Sinf−S0)/AC50 in dose response curves of test compounds.\nDoxorubicin is a DNA-damaging toxin known to activate the poly ADP-ribose polymerase (PARP) enzyme as a central feature of DNA repair (Pacher et al., 2002) (Munoz-Gamez et al., 2009). […] U2OS cells exposed to sub-lethal levels of doxorubicin were lysed in methanol, cleared by centrifugation and subjected to metabolite analysis by mass spectrometry. These methods allow for the simultaneous, quantitative analysis of hundreds of intracellular metabolites (Tu et al., 2007) (Wang et al., 2009). […] The mass spectrometry methods used to quantitate metabolite levels measured NAD relative to hundreds of other intracellular metabolites. […]"}, "U2OS cells": {"test_system": "U2OS cells", "experiment": "cell survival assay with seven other toxins", "format": "cell-based", "conditions": "5 μM P7C3-A20 2 h prior to toxins for 72 h", "protocol": "FIG. 8. P7C3A20 protects U2OS cells from doxorubicin-mediated toxicity. U2OS cells were treated with 5 μM P7C3-A20 for 2 h prior to incubation with the indicated concentrations of eight toxins for 72 h.\nProgress on studies aimed towards resolving the mode of action of P7C3 has been hampered by the fact that we have been limited to studies of drug action in living animals. Our standard assay of neurogenesis requires, under optimal conditions, a one month turn-around from the synthesis of a new derivative to a score for its neuroprotective activity. In efforts to break this logjam, we tested whether P7C3 might have cell-protective activity to any of eight generic toxins.\nCell survival assay was performed in 96-well plates using CellTiter-Glo Luminescent Cell Viability Assay kit (Promega) that measures cellular ATP content. The CellTiter-Glo reagent was diluted by adding 2 volumes of PBS containing 1% Triton X-100. 50 μl of diluted reagent was directly added to 100 μl of cell culture medium per well. […] Luminescence was recorded by Tecan […]luor Plus reader (Tecan). Cell survival was presented as the percentage of viable cells compared with untreated control, and mean±SD was calculated from duplicates. The dox:tox assay of P7C3 analogs was carried out in the HTS Core (University of Texas Southwestern Medical Center) using the EnVison multimode plate reader (Perkin Elmer)."}},
  "data": [
    {"compound": "COc1cccc(NCC(F)Cn2c3ccc(Br)cc3c3cc(Br)ccc32)c1", "note": "(centres unmarked) [S10]", "values": [
      {"measurement": "NAD level relative to total metabolites", "setting": "NAD in U2OS cells", "result": "dose-dependent replenishment of NAD"},
      {"measurement": "protection from seven other toxins", "setting": "U2OS cells", "result": "no evidence of drug-mediated protection"}
    ]}
  ]
}
